From patent publication US20160022751A1, “NOVEL COMPOSITION FOR TREATING ALZHEIMER'S DISEASE AND IMPROVING COGNITIVE FUNCTION OF ALZHEIMER'S PATIENTS” (GANGNEUNG-WONJU NATIONAL UNIVERSITY INDUSTRY ACADEMY …, priority 2014, published 2016)

Columns and labels:
VAChT = VAChT mRNA expression in N2a cells (RT-PCR); type: cell-based, mouse; details: for expression of VAChT mRNA: single ginsenoside (FIG. 7B); for expression of VAChT, dose dependence: various concentrations (FIG. 7D)
Description: (§1) The present inventor reported that ChAT overexpressing human neural stem cells restored cognition with an increase of ACh levels in rat model (Park et al., Exp. Neurol., 234: 521-526, 2012). This implies that the increase of the ChAT level in cholinergic neurons plays a critical role in cognition enhancement and thus the cholinergic gene locus “VAChT/ChAT” can be a putative target for therapeutic approaches on AD. Thus the present inventor prepared transfected Neuro-2a (N2a) cells that over-express the human ChAT and APP (designated as “N2a.hChAT” and “N2a.hAPPswe”, respectively, FIG. 6) and the N2a.hChAT and N2a.hAPPswe cells were treated with the faction groups 1 to 5 isolated in the Example 3 at a centration of 50 μg/ml. Neuro-2a mouse neuroblastoma cells (Korean Cell Line Bank, Korea) were grown in DMEM supplemented with 10% fetal bovine serum (FBS), 100 U/m penicillin, and 100 μg/ml streptomycin (Invitrogen, USA) under 5% CO2 at 37° C. in tissue culture flasks. For all experiments, cells were grown to greater than 90% confluency and subjected to no more than 20 cell passages. The medium was changed every 2-3 days. Subconfluent cells were harvested and seeded at a density of 5×10^5 cells or 5×10^6 cells in poly-L-lysine-coated 35 mm or 60 mm culture plates. To recover the cells that are not completely saturated for analysis, poly-L-lysine coated 35 mm or 60 mm culture was seeded at a concentration of 5×10^5 or 5×10^6 cells on the plates. The extent of expression of hChAT and APP in the N2a.hChAT and N2a.hAAPswe cells treated with the faction groups 1 to 5 was quantified with RT-PCR using primers described in the below Table 2. At this time, beta-actin was used as an internal control.
(§2) Specifically, total RNA extracts from N2a cells were prepared using the Trizol method (Invitrogen, USA) and cDNA was synthesized from RNA by reverse transcription of 1 μg of total RNA using a reverse transcription system (Improm-II, Promega, USA) and oligo dT primers in a total volume of 20 μL. PCR amplification was performed using the primers described in Table 2 (Bioneer, Korea). Quantitative real-time PCR reactions were run on a Rotor-Gene 6000 (Corbett Research, Australia) using SensiMix™ SYBR Hi-ROX Kit (Bioline, U.K.) in 20 μL reaction mixtures. Each real-time-PCR master mix contained 10 μL 2× enzyme master mix, 7.0 μL RNase free water, 1 μL of each primer (10 pM each), and 1 μL diluted template. The PCR was performed with an initial pre-incubation step for 15 min at 95° C., followed by 45 cycles of 95° C. for 15 s, annealing at 52° C. for 15 s, and extension at 72° C. for 10 s. Melting curve analysis was used to confirm formation of the expected PCR product, and products from all assays were additionally tested with 1.2% agarose gel electrophoresis to confirm the correct lengths. An inter-run calibrator was used, and a standard curve was created for each gene to obtain PCR efficiencies. Relative sample expression levels were calculated using Rotor-Gene 6000 Series Software 1.7, and were expressed relative to β-actin and corrected for between-run variability. Data for the experimental samples were expressed as a fold unit the internal control gene.
(§3) In order to examine whether five ginsenosides affect the expression of ChAT related to the synthesis of acetylcholine and VAChT controlling extracellular secretion of acetylcholine, the present inventor analyzed the expression level of ChAT and VAChT after treating the five ginsenosides to N2a […] cells, respectively.

ChAT [1] = assay: ChAT mRNA expression in N2a cells (RT-PCR); type: cell-based, mouse; details: for expression of ChAT mRNA: single ginsenoside (FIG. 7A); for expression of ChAT, dose dependence: various concentrations (FIG. 7C)
Description: as §1, §2, §3

ChAT [2] = assay: ChAT expression in N2a cells with or without Trk inhibitor K252a; type: cell-based, mouse; details: K252a 50 nM, ginsenoside 5 μg/mL, 48 h (FIG. 12)
Description: Since NGF-Trk signal pathway upregulates ChAT and VAChT, it is important to know whether ginsenosides Rd and Re regulate Trk activity directly or at least indirectly. Therefore, the inventor investigated whether the expression of ChAT and VAChT was blocked by treating K252a, an inhibitor against protein kinase C (PKC) and Trk together with ginsenoside Rd or Re, in order to determine more closely whether the expression of cholinergic surface markers and the differentiation of neurons by the treatment of ginsenosides Rd and Re are caused whereby they act NGF-TrkA pathway directly. Particularly, N2a cells were treated with or without K252a (50 nM) in the presence of NGF (100 ng/mL), Re (5 μg/mL) or Rd (5 μg/mL) for 48 h. Total RNA and protein lysates were isolated as described in the Example 4-1 (FIG. 12). […] In addition, the present inventor performed quantitative RT-PCR in order to verify whether the treatment of ginsenosides Rd and Re affect the expression of NGF and NGFR in N2a cells.

[3] = HPLC analysis of ginsenosides transported into the brain after oral administration; type: in vivo, BALB/c mice; details: mice, oral mixture of Rb1, Re, Rd, Rg1, Rg3 10 mg/kg each, brain taken after six hours, HPLC (FIG. 22)
Protocol: Thus, the present inventor performed an HPLC analysis on brain tissue extract obtained from experimental animals administrated with mixture of five ginsenosides (Rb1, Rd, Re, Rg1 and Rg3) which are contained in RgC, in order to investigate whether RgC or ginsenosides Rd, Re and Rg3 can pass through the BBB. For the HPLC analysis of ginsenosides transported into the brain, a mixture of Rb1, Re, Rd, Rg1, and Rg3 (10 mg/kg each) was administered to ten-week-old male BALB/c mice (Central Lab. Animals, Korea). Brain tissues were isolated six hours after the oral administration of the ginsenosides after the complete perfusion with 0.9% saline solution, mechanically disrupted using a TissueLyser (Qiagen, Crawley, U.K.), and centrifuged for 10 min at 13500 rpm. The supernatant (1 mL) was then mixed with n-butanol (0.4 mL) and the butanol layer was completely evaporated and dried for HPLC analysis. The chromatography was performed by the Agilent 1100 series HPLC system (Agilent Technologies, USA) equipped with a vacuum degasser, quaternary pump, and ultraviolet (UV) detector. Chromatographic separation was performed on a Zorbax SB-Aq C18 column (4.6150 mm, 5 μm) and a mixture of solvent A (water) and solvent B (acetonitrile) flowed at a rate of 1 mL/min. The gradient elution program was initiated with 79% solvent A and 21% solvent B, 0-10 min (21-22% B), 10-11 min (22-23% B), 11-29 min (23-24% B), 29-34 min (24-30% B), 34-44 min (30-32% B), 44-49 min (32-50% B), 49-64 min (50-65% B), 64-78 min (65-100% B), and equilibrated with the initial gradient program (21% B) for 10 min prior to the next injection. The column temperature was set at 35° C., the volume of the sample injection was 10 μL, and detection wavelength was set at 203 nm. The animal experiments were approved by the Gangneung-Wonju National University Animal Care and Use Committee (Approval Number: GWNU-2013-23), and all procedures were conducted in accordance with the Guide for Care and Use of Laboratory Animals published by the National Institute of Health.

Compound | expression of VAChT mRNA (VAChT) | expression of VAChT, dose dependence (VAChT) | expression of ChAT mRNA (ChAT [1]) | expression of ChAT, dose dependence (ChAT [1]) | ChAT expression on co-treatment with K252a compared with single treatment (ChAT [2]) | penetration into the brain (passage through BBB) [3]
CC(C)=CCC[C@](C)(O[C@@H]1O[C@H](CO)[C@@H](O)[C@H](O)[C@H]1O)[C@H]1CC[C@]2(C)[C@@H]1[C@H](O)C[C@@H]1[C@@]3(C)CC[C@H](O[C@@H]4O[C@H](CO)[C@@H](O)[C@H](O)[C@H]4O[C@@H]4O[C@H](CO)[C@@H](O)[C@H](O)[C@H]4O)C(C)(C)[C@@H]3CC[C@]12C [ginsenoside Rd] | significantly increased | increased expression of ChAT and VAChT in a dose-dependent manner | significantly increased | increased expression of ChAT and VAChT in a dose-dependent manner | inhibited | penetrated into the brain
CC(C)=CCC[C@](C)(O[C@@H]1O[C@H](CO)[C@@H](O)[C@H](O)[C@H]1O)[C@H]1CC[C@]2(C)[C@@H]1[C@H](O)C[C@@H]1[C@@]3(C)CC[C@H](O)C(C)(C)[C@@H]3[C@@H](O[C@@H]3O[C@H](CO)[C@@H](O)[C@H](O)[C@H]3O[C@@H]3O[C@@H](C)[C@H](O)[C@@H](O)[C@H]3O)C[C@]12C [ginsenoside Re] | significantly increased | increased expression of ChAT and VAChT in a dose-dependent manner | significantly increased | increased expression of ChAT and VAChT in a dose-dependent manner | inhibited | penetrated into the brain
CC(C)=CCC[C@](C)(O)[C@H]1CC[C@]2(C)[C@@H]1[C@H](O)C[C@@H]1[C@@]3(C)CC[C@H](O[C@@H]4O[C@H](CO)[C@@H](O)[C@H](O)[C@H]4O[C@@H]4O[C@H](CO)[C@@H](O)[C@H](O)[C@H]4O)C(C)(C)[C@@H]3CC[C@]12C [ginsenoside Rg3] | no significant increase | – | no significant increase | – | – | penetrated into the brain
